Assay results reported in PubChem BioAssay (NCI).
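1) Cells in 96-well plates. 2) Compound, 48 h, 5 concentrations. 3) Linear interpolation between surrounding doses. 4) Unreached endpoint = highest concentration. TGI denotes the concentration required for complete inhibition of growth.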

How the values were obtained:
Test in all cases: inhibition of tumour cell growth, NCI panel, 48 h
SK-MEL-28 melanoma = tested on: SK-MEL-28 melanoma
UACC-62 melanoma = tested on: UACC-62 melanoma
K-562 leukemia = tested on: K-562 leukemia
KM20L2 colon = tested on: KM20L2 colon
LXFL 529 NSCLC = tested on: LXFL 529 NSCLC
U251 CNS = tested on: U251 CNS
OVCAR-4 ovarian = tested on: OVCAR-4 ovarian
A549 NSCLC = tested on: A549 NSCLC
NCI-H460 lung = tested on: NCI-H460 lung
NCI-H226 lung = tested on: NCI-H226 lung
SF-295 CNS = tested on: SF-295 CNS
NCI-H23 lung = tested on: NCI-H23 lung
LOX IMVI melanoma = tested on: LOX IMVI melanoma
DLD-1 colon = tested on: DLD-1 colon
RXF-631 renal = tested on: RXF-631 renal
HCC-2998 colon = tested on: HCC-2998 colon
SR leukemia = tested on: SR leukemia
HOP-18 NSCLC = tested on: HOP-18 NSCLC
SNB-19 CNS = tested on: SNB-19 CNS
M19-MEL melanoma = tested on: M19-MEL melanoma
OVCAR-5 ovarian = tested on: OVCAR-5 ovarian
A498 renal = tested on: A498 renal
SW-620 colon = tested on: SW-620 colon
HT29 colon = tested on: HT29 colon
KM12 colon = tested on: KM12 colon
SF-539 CNS = tested on: SF-539 CNS
IGROV1 ovarian = tested on: IGROV1 ovarian
RXF 393 renal = tested on: RXF 393 renal
SK-MEL-5 melanoma = tested on: SK-MEL-5 melanoma
OVCAR-8 ovarian = tested on: OVCAR-8 ovarian
SNB-75 CNS = tested on: SNB-75 CNS
MOLT-4 leukemia = tested on: MOLT-4 leukemia
SK-MEL-2 melanoma = tested on: SK-MEL-2 melanoma
EKVX NSCLC = tested on: EKVX NSCLC
XF 498 CNS = tested on: XF 498 CNS
TK-10 renal = tested on: TK-10 renal
SN12C renal = tested on: SN12C renal
NCI-H522 lung = tested on: NCI-H522 lung
DMS 114 small cell lung = tested on: DMS 114 small cell lung
OVCAR-3 ovarian = tested on: OVCAR-3 ovarian
HOP-92 NSCLC = tested on: HOP-92 NSCLC
SK-OV-3 ovarian = tested on: SK-OV-3 ovarian
HCT-15 colon = tested on: HCT-15 colon
RPMI-8226 leukemia = tested on: RPMI-8226 leukemia
SF-268 CNS = tested on: SF-268 CNS
ACHN renal = tested on: ACHN renal
MALME-3M melanoma = tested on: MALME-3M melanoma
UO-31 renal = tested on: UO-31 renal
COLO 205 colon = tested on: COLO 205 colon
UACC-257 melanoma = tested on: UACC-257 melanoma
CCRF-CEM leukemia = tested on: CCRF-CEM leukemia
SNB-78 CNS = tested on: SNB-78 CNS
HOP-62 NSCLC = tested on: HOP-62 NSCLC
DMS 273 small cell lung = tested on: DMS 273 small cell lung
M14 melanoma = tested on: M14 melanoma
HCT-116 colon = tested on: HCT-116 colon
HL-60(TB) leukemia = tested on: HL-60(TB) leukemia
786-0 renal = tested on: 786-0 renal

Measured: TGI

CC1=CC=NN2C(=O)[C@H](C)C2C1 (stereo partly drawn)
> 100 µM: all assays above
